Results on 24 molecules are retold here after patent US9212168B2 (priority 2011, dated 2015).

Test [1] concerns the target HCV genotype 1b replicon. Kind of test: HCV genotype 1b replicon assay (Renilla luciferase readout). It is filed as cell-based, hepatitis C virus. As to conditions: for Genotype 1b: HCV genotype 1b replicon; for EC50: Hepatitis C virus, read-out: Genotype 1b. The text has this:
Assay 1: HCV Genotype 1b Replicon Assay
The HCV genotype 1b replicon cell line was obtained from Apath LLC (Brooklyn, N.Y.) (APC144; Huh7 cell background). This subgenomic replicon contains the N-terminus of the HCV core protein fused to the neomycin-resistance selectable marker. The EMCV IRES lies downstream and drives expression of humanized Renilla luciferase fused to the non-structural proteins NS3-NS5B. This cell line was used to determine compound potency using the luciferase activity readout as a measurement of compound inhibition of replicon levels.
Cells were grown at 37° C. in a 5% CO2 humidified incubator in DMEM (Invitrogen) with 10% FBS (HyClone), 1×NEAA (Invitrogen), 1× Pen-Strep (Invitrogen), and 500 μg/mL G418 (Invitrogen). On day 1 of the assay, cells were plated at 10,000 cells/well in white 96-well tissue culture plates (Costar) in 200 μL media lacking G418. Four hours later, once the cells have adhered, the media was removed and replaced with media (no G418) containing dose-responses of test compounds. Compounds were initially diluted in DMSO and then diluted another 200× in media to bring the final DMSO concentration down to 0.5%. The cells were incubated with test compounds for 48 hours. At the end of the incubation period, media and compound were removed from the plates and the luciferase activity was determined using Promega Renilla-Glo reagents.
To analyze the data, the luciferase activity was plotted vs. the compound concentration, and EC50 values were determined from a 4-parameter robust fit model with the GraphPad Prism software package (GraphPad Software, Inc., San Diego, Calif.). Results are expressed as the negative decadic logarithm of the EC50 value, pEC50.
Test compounds having a higher pEC50 value in this assay show greater inhibition of HCV genotype 1b replication.

Test [2] concerns HCV genotype 1a replicon. The experiment in a line: HCV genotype 1a replicon assay (NS3 protease activity readout). It is filed as cell-based, hepatitis C virus. As to conditions: for Genotype 1a: HCV genotype 1a replicon; for EC50: Hepatitis C virus, read-out: Genotype 1a, HCV genotype 1a replicon. In outline: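 Genotype 1a subgenomic replicon cells (APC89, Huh7.5) were treated with compound dose-responses in G418-free medium, 0.5% DMSO final, for 48 or 72 hours at 37° C. Lysate NS3/4a protease activity measured with 15 μM FRET substrate, 20 min at 37° C (ex 340/em 509 nm); EC50 by 4-parameter fit.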

Turning to `COC(=O)N[C@H](C(=O)N1C[C@@H](C)C[C@H]1c1nc(-c2ccc(-c3cc(Cl)c(NC(=O)c4ccc(N5CCN(C(=O)C(C)(C)F)C[C@H]5C)nc4)cc3OC(F)(F)F)cc2)c[nH]1)C(C)C` [Example 1-96], in test [1], the “Genotype 1b” value is “D (D represents pEC50>10 (EC50<0.1 nM))”. Also, the “Genotype 1a” value in test [2] is given as “D (D represents pEC50>10 (EC50<0.1 nM))”.

For `COC(=O)N[C@H](C(=O)N1C[C@@H](C#N)C[C@H]1c1nc(-c2ccc(-c3cc(Cl)c(NC(=O)c4ccc(N5CCN(C(=O)C(C)(C)CO)C[C@H]5C)nc4)cc3OC(F)(F)F)cc2)c[nH]1)C(C)C` [Example 15-12], the EC50 in test [1] and in test [2] was below 0.1 nM throughout.

Regarding `COC(=O)N[C@H](C(=O)N1C[C@@H](C)C[C@H]1c1nc(-c2ccc(-c3ccc(C(=O)Nc4ccc(N5C[C@H](C)N(C(=O)[C@@]6(O)CC6(C)C)C[C@H]5C)nc4)cc3OC(F)(F)F)cc2)c(Cl)[nH]1)C(C)C` [Example 4-37], the “Genotype 1b” value in test [1] is reported as “D (D represents pEC50>10 (EC50<0.1 nM))”. The “Genotype 1a” value in test [2] is given as “D (D represents pEC50>10 (EC50<0.1 nM))”.

With `COCC(C)(C)C(=O)N1CCN(c2ccc(C(=O)Nc3cc(OC(F)(F)F)c(-c4ccc(-c5c[nH]c([C@@H]6C[C@H](C)CN6C(=O)[C@@H](NC(=O)OC)C(C)C)n5)cc4)cc3Cl)cn2)[C@H](C)C1` [Example 12-32], the EC50 in test [1] and in test [2] was below 0.1 nM each time.

As for `COC(=O)N[C@H](C(=O)N1C[C@@H](C)C[C@H]1c1nc(-c2ccc(-c3cc(Cl)c(NC(=O)c4ccc(N5CCN(C(=O)C(C)(C)C)C[C@H]5C)nc4)cc3C(F)(F)F)cc2)c[nH]1)C1CCOCC1` [Example 19-2], the “Genotype 1b” value in test [1] was “D (D represents pEC50>10 (EC50<0.1 nM))”. Besides, the “Genotype 1a” value in test [2] is recorded as “D (D represents pEC50>10 (EC50<0.1 nM))”.

As to `COC(=O)N[C@H](C(=O)N1C[C@@H](C)C[C@H]1c1nc(-c2ccc(-c3cc(Cl)c(NC(=O)c4ccc(N5CCN(C(=O)C(C)(C)C)C[C@H]5C)nc4)cc3OC(F)(F)F)cc2)c(F)[nH]1)C(C)C` [Example 5-8], the EC50 in test [1] and in test [2] was below 0.1 nM in each case.

On to `COC(=O)N[C@H](C(=O)N1C[C@@H](C)C[C@H]1c1nc(-c2ccc(-c3cc(Cl)c(C(=O)Nc4ccc(N5CCN(C(=O)C(C)(C)C)[C@H](C)C5)nc4)cc3OC(F)(F)F)cc2)c[nH]1)C1CCOCC1` [24-3], for which the “Genotype 1b” value in test [1] is on record as “D (D represents pEC50>10 (EC50<0.1 nM))”. The “Genotype 1a” value in test [2] is “C (C represents pEC50 between and 9 and about 10, (EC50 between 1 nM and 0.1 nM))”.

`COC(=O)N[C@H](C(=O)N1C[C@@H](C)C[C@H]1c1nc(-c2ccc(-c3ccc(C(=O)Nc4ccc(N5CCN(C(=O)C(C)(C)C)C[C@H]5C)nc4)cc3)cc2)c[nH]1)C1CCOCC1` [Example 22-1]: in test [1], the “Genotype 1b” value is given as “D (D represents pEC50>10 (EC50<0.1 nM))”. In addition, the “Genotype 1a” value in test [2] is listed as “D (D represents pEC50>10 (EC50<0.1 nM))”.

On to `COC(=O)N[C@H](C(=O)N1C[C@@H](C)C[C@H]1c1nc(-c2ccc(-c3cc(Cl)c(NC(=O)c4ccc(N5CCN(C(=O)C(C)(C)C)C[C@H]5C)nc4)cc3OC(F)(F)F)cc2)c[nH]1)C1C[C@@H](C)O[C@@H](C)C1` (stereo partly drawn) [Example 13-42], for which the EC50 in test [1] and in test [2] was below 0.1 nM throughout.

Consider `COC(=O)N[C@H](C(=O)N1C[C@@H](C)C[C@H]1c1nc(-c2ccc(-c3cc(Cl)c(NC(=O)c4ccc(N5C[C@H](C)N(C(=O)C6CC6)C[C@H]5C)nc4)cc3OC(F)(F)F)cc2)c[nH]1)C(C)C` [Example 1-43], for which the “Genotype 1b” value in test [1] is “D (D represents pEC50>10 (EC50<0.1 nM))”. The “Genotype 1a” value in test [2] is given as “D (D represents pEC50>10 (EC50<0.1 nM))”.

Turning to `COC(=O)N[C@H](C(=O)N1C[C@@H](OC)C[C@H]1c1nc(-c2ccc(-c3cc(Cl)c(NC(=O)c4ccc(N5CCN(C(=O)C(C)(C)C)C[C@H]5C)nc4)cc3OC(F)(F)F)cc2)c(CO)[nH]1)C(C)C` [Example 5-18], the EC50 in test [1] and in test [2] was below 0.1 nM throughout.

On to `COC(=O)N[C@H](C(=O)N1C[C@@H](C)C[C@H]1c1nc(-c2ccc(-c3ccc(NC(=O)c4ccc(N5CCN(C(=O)[C@H]6CC6(C)C)C[C@H]5C)nc4)cc3C(F)(F)F)cc2)c[nH]1)C(C)C` [Example 1-62], for which the “Genotype 1b” value in test [1] was “D (D represents pEC50>10 (EC50<0.1 nM))”. The “Genotype 1a” value in test [2] was “D (D represents pEC50>10 (EC50<0.1 nM))”.

With `COC(=O)N[C@H](C(=O)N1C[C@@H](SC)C[C@H]1c1nc(-c2ccc(-c3cc(Cl)c(C(=O)Nc4ccc(N5CCN(C(=O)C(C)(C)C)C[C@H]5C)nc4)cc3OC(F)(F)F)cc2)c[nH]1)C(C)C` [Example 5-3], the EC50 in test [1] and in test [2] was below 0.1 nM throughout.

`COC(=O)N[C@H](C(=O)N1C[C@@H](C)C[C@H]1c1nc(-c2ccc(-c3cc(F)c(NC(=O)c4ccc(N5C[C@H](C)N(C(=O)[C@H]6CC6(C)C)C[C@H]5C)nc4)cc3OC(F)(F)F)cc2)c[nH]1)C(C)C` [Example 1-13]: in test [1], the “Genotype 1b” value is given as “D (D represents pEC50>10 (EC50<0.1 nM))”. In test [2], the “Genotype 1a” value is “D (D represents pEC50>10 (EC50<0.1 nM))”.

With `COC(=O)N[C@H](C(=O)N1C[C@@H](C)C[C@H]1c1nc(-c2ccc(-c3cc(Cl)c(NC(=O)c4ccc(N5CCN(C(=O)C(C)(C)C)[C@@H](C)C5)nc4)cc3OC(F)(F)F)cc2)c[nH]1)C1CCOCC1` [Example 20-5], the “Genotype 1b” value in test [1] is “D (D represents pEC50>10 (EC50<0.1 nM))”. For the same molecule, the “Genotype 1a” value in test [2] is recorded as “D (D represents pEC50>10 (EC50<0.1 nM))”.

For the molecule `COC(=O)NC(C(=O)N1CC(C)CC1c1nc(-c2ccc(-c3ccc(NC(=O)c4ccc(N5CCN(C(=O)C(C)(C)C)CC5C)nc4)cc3OC(F)(F)F)cc2)c[nH]1)C1CCOCC1` (stereo not drawn) [Example 13-12], the “Genotype 1b” value in test [1] is reported as “D (D represents pEC50>10 (EC50<0.1 nM))”. The “Genotype 1a” value in test [2] is on record as “D (D represents pEC50>10 (EC50<0.1 nM))”.

Turning to `COC(=O)NC(C(=O)N1CC(OC)CC1c1nc(-c2ccc(-c3cc(F)c(NC(=O)c4ccc(N5CCN(C(=O)C(C)(C)C)CC5C)nc4)cc3OC(F)(F)F)cc2)c[nH]1)C(C)O` (stereo not drawn) [Example 16-4], the “Genotype 1b” value in test [1] was “D (D represents pEC50>10 (EC50<0.1 nM))”. The “Genotype 1a” value in test [2] is listed as “D (D represents pEC50>10 (EC50<0.1 nM))”.

As to `COC(=O)NC(C(=O)N1C[C@@H](C)C[C@H]1c1nc(-c2ccc(-c3ccc(C(=O)Nc4ccc(N5CCN(C(=O)C(C)(C)C)C[C@H]5C)nc4)c(F)c3OC(F)(F)F)cc2)c[nH]1)C1CCOCC1` (stereo partly drawn) [Example 25-2], the EC50 in test [1] and in test [2] was below 0.1 nM in each case.

For `CNC(=O)N1CCN(c2ccc(C(=O)Nc3cc(OC(F)(F)F)c(-c4ccc(-c5c[nH]c([C@@H]6C[C@H](C)CN6C(=O)[C@@H](NC(=O)OC)C(C)C)n5)cc4)cc3Cl)cn2)[C@H](C)C1` [Example 1-17], in test [1], the “Genotype 1b” value is reported as “D (D represents pEC50>10 (EC50<0.1 nM))”. Moreover, the “Genotype 1a” value in test [2] is reported as “D (D represents pEC50>10 (EC50<0.1 nM))”.

`COC(=O)N[C@H](C(=O)N1C[C@@H](C)C[C@H]1c1nc(-c2ccc(-c3cc(Cl)c(NC(=O)c4ccc(N5CCN(C(=O)NC(C)(C)C)C[C@H]5C)nc4)cc3OC(F)(F)F)cc2)c[nH]1)C(C)C` [Example 12-24]: the EC50 in test [1] and in test [2] was below 0.1 nM each time.

`COC(=O)N[C@H](C(=O)N1C[C@@H](C)C[C@H]1c1nc(-c2ccc(-c3ccc(C(=O)Nc4ccc(N5C[C@H](C)N(C(=O)C6CC6)C[C@H]5C)nc4)cc3OC(F)(F)F)cc2)c(Cl)[nH]1)C(C)C` [Example 4-11]: in test [1], the “Genotype 1b” value is “D (D represents pEC50>10 (EC50<0.1 nM))”. Besides, in test [2], the “Genotype 1a” value is recorded as “D (D represents pEC50>10 (EC50<0.1 nM))”.

In the case of `COC(=O)N[C@H](C(=O)N1C[C@@H](OC)C[C@H]1c1nc(-c2ccc(-c3cc(Cl)c(NC(=O)c4ccc(N5CCN(C(=O)[C@H]6CC6(C)C)C[C@H]5C)nc4)cc3OC(F)(F)F)cc2)c[nH]1)C1CCOCC1` [Example 28-11], in test [1], the “Genotype 1b” value is recorded as “D (D represents pEC50>10 (EC50<0.1 nM))”. Further, the “Genotype 1a” value in test [2] was “D (D represents pEC50>10 (EC50<0.1 nM))”.

Turning to `COC(=O)N[C@H](C(=O)N1C[C@@H](C)C[C@H]1c1nc(-c2ccc(-c3ccc(NC(=O)c4ccc(N5CCN(C(=O)C(C)(C)C)C[C@H]5C)nc4)cc3OC(F)(F)F)cc2)c[nH]1)C(C)C` [Example 1-75], in test [1], the “Genotype 1b” value is “D (D represents pEC50>10 (EC50<0.1 nM))”. Further, in test [2], the “Genotype 1a” value is “D (D represents pEC50>10 (EC50<0.1 nM))”.

Take `COC(=O)N[C@H](C(=O)N1C[C@@H](OC)C[C@H]1c1nc(-c2ccc(-c3cc(Cl)c(NC(=O)c4ccc(N5CCN(C(=O)C(C)(C)CO)C[C@H]5C)nc4)cc3OC(F)(F)F)cc2)c(CO)[nH]1)C1CCOCC1` [Example 28-16]: the “Genotype 1b” value in test [1] is on record as “D (D represents pEC50>10 (EC50<0.1 nM))”. For the same molecule, in test [2], the “Genotype 1a” value is “D (D represents pEC50>10 (EC50<0.1 nM))”.
